The values that follow come from patent US4840785A, “Mammal intestinal hormone precursor and its use” (priority 1985, dated 1989).

Several values for one entry are separate records, joined by “and”; a condition that tells them apart may be missing. Identical values can stand only once. No end group written: not given here.

The subject of experiment [1] is pancreas of the anesthetized cat. As to the kind of experiment: secretin bioassay: stimulation of secretion of alkali in the pancreatic juice in the anesthetized cat. In kind it is in vivo. The procedure:
The biological activity was measured by the ability to stimulate the secretion of alkali in the pancreatic juice in the anesthetized cat (Mutt, v. and Soderberg, U. On the assay of secretin. Ark.Kem. 15, 63-68, 1959). The sample was compared to a secretin standard with an established activity of 3500 units per mg. […] Proteolytic fragmentation

Experiment [2] shares this test system. The following applies: standard used for comparison; cited from earlier work.

On to “secretin (HSDGTFTSELSRLRDSARLQRLLQGLV-NH2; UniProt P63298 33-59, looked up) [porcine secretin, intestinal hormone peptide composed of 27 amino acid residues, C-terminal valine amidated]”, for which the “ALKALI SECRETED” value in experiment [1] (Cat. 1, dose 47 pmole) was 130 μequiv. and 116 μequiv; in experiment [1] (Cat. 1, dose 94 pmole), 182 μequiv. and 170 μequiv; in experiment [1] (Cat. 2, dose 47 pmole), 110 μequiv; in experiment [1] (Cat. 2, dose 94 pmole) it was 150 μequiv. Moreover, the “ALKALI SECRETED per dose” value is 2.7 μequiv.pmole and 2.5 μequiv.pmole in experiment [1] (Cat. 1, dose 47 pmole); 1.9 μequiv.pmole and 1.8 μequiv.pmole in experiment [1] (Cat. 1, dose 94 pmole); 2.3 μequiv.pmole in experiment [1] (Cat. 2, dose 47 pmole); 1.6 μequiv.pmole in experiment [1] (Cat. 2, dose 94 pmole). Further, the “established activity of secretin standard” value in experiment [2] is 3500 units per mg.
